This note sets out measurements from PubChem BioAssay (NCI).

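Five concentrations, 48 hours, 96-well plates. At the GI50, growth is halved. TGI: concentration producing complete growth inhibition.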 Where a SMILES comes first, the peptide text is derived from it. The star is where a group is joined. Cbz = O=C(OCc1ccccc1)*; OBn = c1ccc(CO*)cc1

Holding throughout (experiment): NCI-60 cell line screen, 48 h
The test system of test [1] is U251 CNS.
Test [2] concerns UO-31 renal.
In test [3] the test system is RPMI-8226 leukemia.
The test system of test [4] is ACHN renal.
The test system of test [5] is HOP-62 NSCLC.
In test [6] the test system is NCI-H23 lung.
Test [7] concerns OVCAR-8 ovarian.
The subject of test [8] is K-562 leukemia.
In test [9] the test system is TK-10 renal.
Test [10] deals with MDA-MB-435.

Turning to `COc1cccc(/C=N/[N-]C(N)=O)c1[O-].[Ni+2].[OH3+].c1cnc2c(c1)ccc1cccnc12`, the TGI in [1], in test [2], in test [3], in test [4], in [5] and in test [6] was over 100 µM each time. Moreover, the TGI in test [7], in [8] and in test [9] was over 100 µM each time.
For the molecule `Oc1[nH]c2ccccc2c1N=Nc1nc(-c2ccc(Cl)c(Cl)c2)cs1`, the TGI in test [1], in test [2], in test [10], in test [4], in test [5] and in [6] was over 100 µM throughout. The TGI in test [7] and in test [9] was over 100 µM in each case.
Take `COC(=O)C(Cc1ccc(O)cc1)NC(=O)C(CC(=O)OCc1ccccc1)NC(=O)OCc1ccccc1` (centres undefined) (Cbz-Asp(OBn)-Tyr-OMe; configuration not given here): the TGI in test [1] stood at 35 µM; in test [2], 49 µM; in test [3], 49.8 µM; in test [4], 34.8 µM; in test [5], 34.6 µM; in [6], 66.1 µM. For the same molecule, the TGI in test [7] was 35.6 µM; in test [8] it was over 100 µM; in [9], 33.5 µM.
For `CN(C)CCSC(=Nc1ccccc1)N1CCCCC1`, the TGI in test [1] was over 100 µM; in test [2], 52.5 µM; in test [3], 87.4 µM; in test [4] it was 30.5 µM; in test [5], over 100 µM; in test [6], 37.3 µM. The results for the TGI in test [7], in test [8] and in test [9] were 39.7 µM, over 100 µM and 33.1 µM, respectively.
`OC1(c2cc3ccccc3s2)CCCCC1`: the TGI in test [1], in test [2], in test [10], in [4], in [5] and in test [6] was over 100 µM each time. Besides, the TGI in [7], in test [8] and in [9] was over 100 µM each time.
For the molecule `Cc1ccc(C(C2C(=O)N(C)C(=O)N(C)C2=O)C(F)(F)C(=O)N(C)C)cc1` (centres undefined), the TGI in test [1], in test [2], in test [3], in [10], in test [4] and in test [5] was over 100 µM each time. Besides, the TGI in test [6], in [7] and in [9] was over 100 µM in each case.
On to `NCCNc1cccc2ccccc12`, for which the TGI in [1], in test [2], in test [3], in [4], in test [5] and in test [6] was over 100 µM each time. In addition, the TGI in test [7] and in test [9] was over 100 µM throughout.
For `CC(CO)C1C[C@H](O)[C@@]2(C)CC(=O)C=C(CO)[C@@H]2C1` (some centres undefined), the TGI in test [1], in [2], in test [10], in [4], in test [5] and in test [6] was over 100 µM throughout. For the same molecule, the TGI in [7] and in [9] was over 100 µM throughout.
With `Cc1cn(CC2=NCC(C)(C)N2)c(=O)[nH]c1=O`, the TGI in test [1], in test [2], in [3], in test [4], in test [5] and in test [6] was over 100 µM in each case. The TGI in [7], in test [8] and in test [9] was over 100 µM throughout.
Regarding `c1ccc2c(c1)CCc1cc3cc4c(nc3nc1-2)-c1ccccc1CC4`, the TGI in test [1], in [2], in test [3], in test [4], in test [5] and in test [6] was over 100 µM throughout. Moreover, the TGI in test [7], in test [8] and in test [9] was over 100 µM throughout.
On to `CC(C)c1ccc(/C=C2\CSCC3=C2NC(=S)NC3c2ccc(C(C)C)cc2)cc1` (centres undefined), for which the TGI in test [1], in test [2], in [3], in [4], in test [5] and in test [6] was over 100 µM each time. Moreover, the TGI in test [7], in [8] and in [9] was over 100 µM throughout.
Consider `N#C[S-].[Nd+3].c1ccc(-c2ccccn2)nc1.c1ccc(-c2ccccn2)nc1.c1ccc(-c2ccccn2)nc1`, for which the GI50 is 4.18 µM in test [1]; 2.19 µM in [2]; 25.8 µM in [6]; 4.8 µM in test [7]; 5.05 µM in test [9]. The TGI is over 100 µM in [1]; 5.5 µM in [2]; 98.7 µM in test [6]; over 100 µM in test [7]; over 100 µM in test [9].
As for `O=c1[nH]c(=O)n(Cc2ccccc2CO)cc1Sc1ccccc1`, the TGI in test [1] was over 100 µM; in [2] it was 22.9 µM; in test [10] it was 45.2 µM; in test [4], 96.4 µM; in [5], over 100 µM; in test [6] it was 39.9 µM. In addition, the results for the TGI in test [7], in test [8] and in [9] were 48.2 µM, over 100 µM and over 100 µM, respectively.
Regarding `COc1cc(CC2c3cc(OC)c(OC)cc3CCN2C)c(Oc2cc3c(cc2OC)-c2c(O)c(OC)cc4c2C(C3)N(C)CC4)cc1OC` (centres undefined), the TGI in test [1] is over 100 µM; in [2], 36.1 µM; in test [10], 94.3 µM; in test [4] it was 49.8 µM; in test [5] it was over 100 µM; in test [6], 42.8 µM. Also, the TGI in test [7] is 44.5 µM; in test [8], over 100 µM; in test [9] it was 51.3 µM.
